# Laboratory results reported in ChEMBL document CHEMBL1201862, “PubChem BioAssay data set” (2004).
#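 96-well plates; 48 h exposure; 5 concentrations. Endpoints by linear interpolation between flanking doses. Not reached: highest tested concentration assigned. Here, GI50 denotes the concentration required for 50% inhibition of growth.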 Calls of active or inactive are those of the source. Cut-off read from the data, not from the text of the source: active = GI50 up to about 1.1 µM and inactive = higher.
# Assays:
# Assay in all cases: NCI-60 cell line screen, 48 h
# 786-0 = system: 786-0
# A498 = system: A498
# A549 = system: A549
# ACHN = system: ACHN
# BT-549 = system: BT-549
# CAKI-1 = system: CAKI-1
# CCRF-CEM = system: CCRF-CEM
# COLO 205 = system: COLO 205
# DU-145 = system: DU-145
# EKVX = system: EKVX
# HCC 2998 = system: HCC 2998
# HCT-116 = system: HCT-116
# HCT-15 = system: HCT-15
# HL-60 = system: HL-60
# HOP-62 = system: HOP-62
# HOP-92 = system: HOP-92
# HT-29 = system: HT-29
# IGROV-1 = system: IGROV-1
# K562 = system: K562
# KM12 = system: KM12
# M14 = system: M14
# MCF7 = system: MCF7
# MDA-MB-231 = system: MDA-MB-231
# MDA-MB-435 = system: MDA-MB-435
# MDA-N = system: MDA-N
# MOLT-4 = system: MOLT-4
# Malme-3M = system: Malme-3M
# NCI-H226 = system: NCI-H226
# NCI-H23 = system: NCI-H23
# NCI-H460 = system: NCI-H460
# NCI-H522 = system: NCI-H522
# NCI/ADR-RES = system: NCI/ADR-RES
# OVCAR-3 = system: OVCAR-3
# OVCAR-4 = system: OVCAR-4
# OVCAR-5 = system: OVCAR-5
# OVCAR-8 = system: OVCAR-8
# PC-3 = system: PC-3
# RPMI-8226 = system: RPMI-8226
# RXF 393 = system: RXF 393
# SF-268 = system: SF-268
# SF-295 = system: SF-295
# SF-539 = system: SF-539
# SK-MEL-28 = system: SK-MEL-28
# SK-MEL-2 = system: SK-MEL-2
# SK-OV-3 = system: SK-OV-3
# SN12C = system: SN12C
# SNB-19 = system: SNB-19
# SNB-75 = system: SNB-75
# SR = system: SR
# SW-620 = system: SW-620
# T47D = system: T47D
# U-251 = system: U-251
# UACC-257 = system: UACC-257
# UACC-62 = system: UACC-62
# UO-31 = system: UO-31
# Hs-578T = system: Hs-578T
# LOX IMVI = system: LOX IMVI
# SK-MEL-5 = system: SK-MEL-5
# TK-10 = system: TK-10
smiles,measurement,setting,value
COc1ccc(N2C(=O)c3cccnc3S2(=O)=O)cc1,GI50,786-0,> 100 µM (inactive)
same,GI50,A498,> 100 µM (inactive)
same,GI50,A549,> 100 µM (inactive)
same,GI50,ACHN,> 100 µM (inactive)
same,GI50,BT-549,> 100 µM (inactive)
same,GI50,CAKI-1,> 100 µM (inactive)
same,GI50,CCRF-CEM,> 100 µM (inactive)
same,GI50,COLO 205,> 100 µM (inactive)
same,GI50,DU-145,> 100 µM (inactive)
same,GI50,EKVX,> 100 µM (inactive)
same,GI50,HCC 2998,> 100 µM (inactive)
same,GI50,HCT-116,> 100 µM (inactive)
same,GI50,HCT-15,> 100 µM
same,GI50,HL-60,> 100 µM (inactive)
same,GI50,HOP-62,> 100 µM (inactive)
same,GI50,HOP-92,> 100 µM (inactive)
same,GI50,HT-29,> 100 µM (inactive)
same,GI50,IGROV-1,> 100 µM (inactive)
same,GI50,K562,> 100 µM (inactive)
same,GI50,KM12,> 100 µM (inactive)
same,GI50,M14,> 100 µM (inactive)
same,GI50,MCF7,> 100 µM (inactive)
same,GI50,MDA-MB-231,> 100 µM (inactive)
same,GI50,MDA-MB-435,> 100 µM (inactive)
same,GI50,MDA-N,> 100 µM (inactive)
same,GI50,MOLT-4,> 100 µM (inactive)
same,GI50,Malme-3M,> 100 µM (inactive)
same,GI50,NCI-H226,> 100 µM (inactive)
same,GI50,NCI-H23,> 100 µM (inactive)
same,GI50,NCI-H460,> 100 µM (inactive)
same,GI50,NCI-H522,> 100 µM (inactive)
same,GI50,NCI/ADR-RES,> 100 µM (inactive)
same,GI50,OVCAR-3,> 100 µM (inactive)
same,GI50,OVCAR-4,> 100 µM (inactive)
same,GI50,OVCAR-5,> 100 µM (inactive)
same,GI50,OVCAR-8,> 100 µM (inactive)
same,GI50,PC-3,> 100 µM (inactive)
same,GI50,RPMI-8226,> 100 µM (inactive)
same,GI50,RXF 393,> 100 µM (inactive)
same,GI50,SF-268,> 100 µM (inactive)
same,GI50,SF-295,> 100 µM (inactive)
same,GI50,SF-539,> 100 µM (inactive)
same,GI50,SK-MEL-28,> 100 µM (inactive)
same,GI50,SK-MEL-2,> 100 µM (inactive)
same,GI50,SK-OV-3,> 100 µM (inactive)
same,GI50,SN12C,> 100 µM (inactive)
same,GI50,SNB-19,> 100 µM (inactive)
same,GI50,SNB-75,> 100 µM (inactive)
same,GI50,SR,> 100 µM (inactive)
same,GI50,SW-620,> 100 µM (inactive)
same,GI50,T47D,> 100 µM (inactive)
same,GI50,U-251,> 100 µM (inactive)
same,GI50,UACC-257,> 100 µM (inactive)
same,GI50,UACC-62,> 100 µM (inactive)
same,GI50,UO-31,> 100 µM (inactive)
COc1cccc(C23CCCC(C2)N(C)CC3OC(=O)c2ccccc2)c1OC (configuration not stated),GI50,786-0,32.7 µM (inactive)
same,GI50,A498,34.7 µM (inactive)
same,GI50,A549,41 µM (inactive)
same,GI50,ACHN,32.7 µM (inactive)
same,GI50,BT-549,14.5 µM (inactive)
same,GI50,CAKI-1,42.4 µM (inactive)
same,GI50,CCRF-CEM,12.5 µM (inactive)
same,GI50,COLO 205,14.1 µM (inactive)
same,GI50,DU-145,36 µM (inactive)
same,GI50,EKVX,24.5 µM (inactive)
same,GI50,HCC 2998,22.9 µM (inactive)
same,GI50,HCT-116,20 µM (inactive)
same,GI50,HCT-15,22.5 µM
same,GI50,HL-60,10.2 µM (inactive)
same,GI50,HOP-62,31.3 µM (inactive)
same,GI50,HT-29,13.2 µM (inactive)
same,GI50,Hs-578T,24.4 µM (inactive)
same,GI50,IGROV-1,15.6 µM (inactive)
same,GI50,K562,18.8 µM (inactive)
same,GI50,KM12,22.9 µM (inactive)
same,GI50,LOX IMVI,20.1 µM (inactive)
same,GI50,M14,15.9 µM (inactive)
same,GI50,MCF7,27.4 µM (inactive)
same,GI50,MDA-MB-435,18 µM (inactive)
same,GI50,MDA-N,16 µM (inactive)
same,GI50,MOLT-4,18.4 µM (inactive)
same,GI50,Malme-3M,16.6 µM (inactive)
same,GI50,NCI-H23,10.7 µM (inactive)
same,GI50,NCI-H460,20.6 µM (inactive)
same,GI50,NCI-H522,22.6 µM (inactive)
same,GI50,NCI/ADR-RES,20.7 µM (inactive)
same,GI50,OVCAR-3,24.8 µM (inactive)
same,GI50,OVCAR-4,24 µM (inactive)
same,GI50,OVCAR-5,26.4 µM (inactive)
same,GI50,OVCAR-8,16.4 µM (inactive)
same,GI50,PC-3,23.8 µM (inactive)
same,GI50,RPMI-8226,18.6 µM (inactive)
same,GI50,SF-268,32 µM (inactive)
same,GI50,SF-295,19.4 µM (inactive)
same,GI50,SF-539,52.5 µM (inactive)
same,GI50,SK-MEL-28,28 µM (inactive)
same,GI50,SK-MEL-2,31.8 µM (inactive)
same,GI50,SK-MEL-5,14 µM (inactive)
same,GI50,SK-OV-3,34 µM (inactive)
same,GI50,SNB-19,35.6 µM (inactive)
same,GI50,SR,16.2 µM (inactive)
same,GI50,SW-620,24.4 µM (inactive)
same,GI50,T47D,20.3 µM (inactive)
same,GI50,U-251,28.3 µM (inactive)
same,GI50,UACC-257,25.8 µM (inactive)
same,GI50,UACC-62,25.9 µM (inactive)
same,GI50,UO-31,> 100 µM (inactive)
Fc1ccc(/N=N/N2CCCC2)cc1,GI50,786-0,> 100 µM (inactive)
same,GI50,A498,> 100 µM (inactive)
same,GI50,A549,> 100 µM (inactive)
same,GI50,ACHN,68.4 µM (inactive)
same,GI50,BT-549,41.8 µM (inactive)
same,GI50,CAKI-1,> 100 µM (inactive)
same,GI50,CCRF-CEM,52.2 µM (inactive)
same,GI50,COLO 205,> 100 µM (inactive)
same,GI50,DU-145,52.5 µM (inactive)
same,GI50,EKVX,> 100 µM (inactive)
same,GI50,HCC 2998,15.5 µM (inactive)
same,GI50,HCT-116,85.7 µM (inactive)
same,GI50,HCT-15,25.2 µM
same,GI50,HL-60,50.4 µM (inactive)
same,GI50,HOP-62,> 100 µM (inactive)
same,GI50,HOP-92,> 100 µM (inactive)
same,GI50,HT-29,> 100 µM (inactive)
same,GI50,Hs-578T,> 100 µM (inactive)
same,GI50,IGROV-1,82.4 µM (inactive)
same,GI50,K562,4.66 µM (inactive)
same,GI50,KM12,92.3 µM (inactive)
same,GI50,LOX IMVI,4.94 µM (inactive)
same,GI50,M14,> 100 µM (inactive)
same,GI50,MCF7,77.8 µM (inactive)
same,GI50,MDA-MB-231,> 100 µM (inactive)
same,GI50,MDA-MB-435,37.2 µM (inactive)
same,GI50,MDA-N,32.4 µM (inactive)
same,GI50,MOLT-4,32.1 µM (inactive)
same,GI50,Malme-3M,> 100 µM (inactive)
same,GI50,NCI-H226,> 100 µM (inactive)
same,GI50,NCI-H23,> 100 µM (inactive)
same,GI50,NCI-H460,15.7 µM (inactive)
same,GI50,NCI-H522,> 100 µM (inactive)
same,GI50,OVCAR-3,> 100 µM (inactive)
same,GI50,OVCAR-4,> 100 µM (inactive)
same,GI50,OVCAR-5,> 100 µM (inactive)
same,GI50,RPMI-8226,22.3 µM (inactive)
same,GI50,RXF 393,> 100 µM (inactive)
same,GI50,SF-268,> 100 µM (inactive)
same,GI50,SF-295,8.04 µM (inactive)
same,GI50,SF-539,> 100 µM (inactive)
same,GI50,SK-MEL-28,94 µM (inactive)
same,GI50,SK-MEL-2,> 100 µM (inactive)
same,GI50,SK-MEL-5,33.9 µM (inactive)
same,GI50,SK-OV-3,> 100 µM (inactive)
same,GI50,SN12C,51.1 µM (inactive)
same,GI50,SNB-19,> 100 µM (inactive)
same,GI50,SR,28.4 µM (inactive)
same,GI50,SW-620,> 100 µM (inactive)
same,GI50,T47D,19.2 µM (inactive)
same,GI50,TK-10,62.4 µM (inactive)
same,GI50,U-251,> 100 µM (inactive)
same,GI50,UACC-257,57.4 µM (inactive)
same,GI50,UACC-62,7.08 µM (inactive)
same,GI50,UO-31,27 µM (inactive)
